Assay results published in patent US12486253B2, “Therapeutics for the degradation of mutant BRAF” (C4 THERAPEUTICS, INC., priority 2021, dated 2025).
Where a name gives a salt, the structure may show the parent alone.

Target: BRAF V600E (Homo sapiens, UniProt P15056, V600E)
Assay: HiBiT cellular BRAF^V600E degradation assay
Format: cell-based
Conditions: A375.10 cells, 24 h; for DC50: concentration at which 50% of total cellular BRAF^V600E is degraded; for Emax: residual protein remaining in the cell, read-out: HiBit 24 h Emax

Sequence of BRAF V600E (P15056 whole entry V600E): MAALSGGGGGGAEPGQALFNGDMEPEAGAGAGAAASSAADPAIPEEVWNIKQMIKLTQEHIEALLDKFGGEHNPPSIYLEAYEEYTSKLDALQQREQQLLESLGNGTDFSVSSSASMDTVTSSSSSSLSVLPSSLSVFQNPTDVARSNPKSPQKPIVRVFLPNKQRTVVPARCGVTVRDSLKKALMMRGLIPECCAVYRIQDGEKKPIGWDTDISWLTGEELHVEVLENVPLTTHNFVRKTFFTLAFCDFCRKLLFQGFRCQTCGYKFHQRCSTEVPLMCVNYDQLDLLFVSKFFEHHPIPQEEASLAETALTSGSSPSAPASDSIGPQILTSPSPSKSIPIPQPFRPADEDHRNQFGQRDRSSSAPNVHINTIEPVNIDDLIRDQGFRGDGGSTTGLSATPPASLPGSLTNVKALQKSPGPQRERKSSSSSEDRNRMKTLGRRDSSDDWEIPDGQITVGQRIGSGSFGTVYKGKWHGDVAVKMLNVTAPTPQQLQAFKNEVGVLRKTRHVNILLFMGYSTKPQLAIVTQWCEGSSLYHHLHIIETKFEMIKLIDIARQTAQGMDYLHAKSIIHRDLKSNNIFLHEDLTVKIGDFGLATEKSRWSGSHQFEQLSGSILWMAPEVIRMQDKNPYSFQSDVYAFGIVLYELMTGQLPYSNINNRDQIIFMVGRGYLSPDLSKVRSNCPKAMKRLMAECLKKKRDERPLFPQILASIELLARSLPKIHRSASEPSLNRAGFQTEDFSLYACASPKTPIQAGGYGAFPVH

Structure (SMILES) | DC50 [nM] | Emax [%]
CN(C1CC1)S(=O)(=O)Nc1ccc(F)c(Oc2ccc3ncn([C@H]4COC5(CCN(C(=O)CC6(O)CCN(c7cc8c(cc7F)c(N7CCC(=O)NC7=O)nn8C)CC6)CC5)C4)c(=O)c3c2)c1C#N [Example 197, (3R)-3-[6-[2-cyano-3-[[cyclopropyl(methyl)sulfamoyl]amino]-6-fluorophenoxy]-4-oxoquinazolin-3-yl]-8-[2-[1-[3-(2,4-dioxo-1,3-diazinan-1-yl)-5-fluoro-1-methylindazol-6-yl]-4-hydroxypiperidin-4-yl]acetyl]-1-oxa-8-azaspiro[4.5]decane] | 25.7 | 27.8
Cn1nc(N2CCC(=O)NC2=O)c2cc(F)c(N3CCC(O)(CC(=O)N4CCC5(CC4)C[C@@H](n4cnc6ccc(Oc7c(F)ccc(NS(=O)(=O)C8CCC8)c7C#N)cc6c4=O)CO5)CC3)cc21 [Example 198, N-[2-cyano-3-[3-[(3R)-8-[2-[1-[3-(2,4-dioxo-1,3-diazinan-1-yl)-5-fluoro-1-methylindazol-6-yl]-4-hydroxypiperidin-4-yl]acetyl]-1-oxa-8-azaspiro[4.5]decan-3-yl]-4-oxoquinazolin-6-yl]oxy-4-fluorophenyl]cyclobutanesulfonamide] | 28.7 | 28.1
CCN(C)S(=O)(=O)Nc1ccc(F)c(Oc2ccc3ncn(-c4cnc(N5CCN(C(=O)CC6(O)CCN(c7cc8c(cc7F)c(N7CCC(=O)NC7=O)nn8C)CC6)CC5)nc4)c(=O)c3c2)c1C#N [Example 199, 6-[2-cyano-3-[[ethyl(methyl)sulfamoyl]amino]-6-fluorophenoxy]-3-[2-[4-[2-[1-[3-(2,4-dioxo-1,3-diazinan-1-yl)-5-fluoro-1-methylindazol-6-yl]-4-hydroxypiperidin-4-yl]acetyl]piperazin-1-yl]pyrimidin-5-yl]-4-oxoquinazoline] | 21.7 | 27.9
CCN(C)S(=O)(=O)Nc1ccc(F)c(Oc2ccc3ncn([C@H]4COC5(CCC(N6CCC(c7cc8c(cc7F)c(N7CCC(=O)NC7=O)nn8C)CC6)CC5)C4)c(=O)c3c2)c1C#N (stereo partly drawn) [Example 200, 6-[2-cyano-3-[[ethyl(methyl)sulfamoyl]amino]-6-fluorophenoxy]-3-[(3R)-8-[4-[3-(2,4-dioxo-1,3-diazinan-1-yl)-5-fluoro-1-methylindazol-6-yl]piperidin-1-yl]-1-oxaspiro[4.5]decan-3-yl]-4-oxoquinazoline] | 15.9 | 26.9
CCN(C)S(=O)(=O)Nc1ccc(F)c(Oc2ccc3ncn([C@H]4COC5(CCN(C(=O)CC6(F)CCN(c7cc8c(cc7F)c(N7CCC(=O)NC7=O)nn8C)CC6)CC5)C4)c(=O)c3c2)c1C#N [Example 201, (3R)-3-[6-[2-cyano-3-[[ethyl(methyl)sulfamoyl]amino]-6-fluorophenoxy]-4-oxoquinazolin-3-yl]-8-[2-[1-[3-(2,4-dioxo-1,3-diazinan-1-yl)-5-fluoro-1-methylindazol-6-yl]-4-fluoropiperidin-4-yl]acetyl]-1-oxa-8-azaspiro[4.5]decane] | 42.5 | 27.2
CCN(C)S(=O)(=O)Nc1ccc(F)c(Oc2ccc3ncc(-n4cc(N5CCCN(C(=O)CN6CCC(c7ccc(NC8CCC(=O)NC8=O)cc7F)CC6)CC5)cn4)nc3c2)c1C#N (stereo not drawn) [Example 215, 7-[2-cyano-3-[[ethyl(methyl)sulfamoyl]amino]-6-fluorophenoxy]-2-[4-[4-[2-[4-[4-[(2,6-dioxopiperidin-3-yl)amino]-2-fluorophenyl]piperidin-1-yl]acetyl]-1,4-diazepan-1-yl]pyrazol-1-yl]quinoxaline] | 18.6 | 7.82
CCN(C)S(=O)(=O)Nc1ccc(F)c(Oc2ccc3ncc(OCC4CCN(C(=O)CN5CCC(c6ccc(NC7CCC(=O)NC7=O)cc6F)CC5)CC4)nc3c2)c1C#N (stereo not drawn) [Example 216, 7-[2-cyano-3-[[ethyl(methyl)sulfamoyl]amino]-6-fluorophenoxy]-2-[[1-[2-[4-[4-[(2,6-dioxopiperidin-3-yl)amino]-2-fluorophenyl]piperidin-1-yl]acetyl]piperidin-4-yl]methoxy]quinoxaline] | 25.2 | 10.1
CCN(C)S(=O)(=O)Nc1ccc(F)c(Oc2ccc3ncc(OC[C@@H]4[C@H]5CN(C(=O)CN6CCC(c7ccc(NC8CCC(=O)NC8=O)cc7F)CC6)C[C@@H]45)nc3c2)c1C#N (stereo partly drawn) [Example 217, 7-[2-cyano-3-[[ethyl(methyl)sulfamoyl]amino]-6-fluorophenoxy]-2-[[(1R,5S)-3-[2-[4-[4-[(2,6-dioxopiperidin-3-yl)amino]-2-fluorophenyl]piperidin-1-yl]acetyl]-3-azabicyclo[3.1.0]hexan-6-yl]methoxy]quinoxaline] | 18 | 8.83
CCN(C)S(=O)(=O)Nc1ccc(F)c(Oc2ccc3ncc(C4COC5(CCN(C(=O)CN6CCC(c7ccc(NC8CCC(=O)NC8=O)cc7F)CC6)CC5)C4)cc3c2)c1C#N (stereo not drawn) [Example 218, 3-[6-[2-cyano-3-[[ethyl(methyl)sulfamoyl]amino]-6-fluorophenoxy]quinolin-3-yl]-8-[2-[4-[4-[(2,6-dioxopiperidin-3-yl)amino]-2-fluorophenyl]piperidin-1-yl]acetyl]-1-oxa-8-azaspiro[4.5]decane] | 11.3 | 6.96
CCN(C)S(=O)(=O)Nc1ccc(F)c(Oc2ccc3ncc(N4CCC5(CCN(C(=O)CN6CCC(c7ccc(NC8CCC(=O)NC8=O)cc7F)CC6)CC5)C4)nc3c2)c1C#N (stereo not drawn) [Example 219, 7-[2-cyano-3-[[ethyl(methyl)sulfamoyl]amino]-6-fluorophenoxy]-2-[8-[2-[4-[4-[(2,6-dioxopiperidin-3-yl)amino]-2-fluorophenyl]piperidin-1-yl]acetyl]-2,8-diazaspiro[4.5]decan-2-yl]quinoxaline] | 21.7 | 13.9
CCN(C)S(=O)(=O)Nc1ccc(F)c(Oc2ccc3ncc(C4CCC5(CCN(C(=O)CN6CCC(c7ccc(NC8CCC(=O)NC8=O)cc7F)CC6)CC5)C4)nc3c2)c1C#N (stereo not drawn) [Example 220, 7-[2-cyano-3-[[ethyl(methyl)sulfamoyl]amino]-6-fluorophenoxy]-2-[8-[2-[4-[4-[(2,6-dioxopiperidin-3-yl)amino]-2-fluorophenyl]piperidin-1-yl]acetyl]-8-azaspiro[4.5]decan-3-yl]quinoxaline] | 47 | 10.5
CCN(C)S(=O)(=O)Nc1ccc(F)c(Oc2ccc3ncc(C4COC5(CCN(C(=O)CN6CCC(c7ccc(NC8CCC(=O)NC8=O)cc7F)CC6)CC5)C4)nc3c2)c1C#N (stereo not drawn) [Example 221, 3-[7-[2-cyano-3-[[ethyl(methyl)sulfamoyl]amino]-6-fluorophenoxy]quinoxalin-2-yl]-8-[2-[4-[4-[(2,6-dioxopiperidin-3-yl)amino]-2-fluorophenyl]piperidin-1-yl]acetyl]-1-oxa-8-azaspiro[4.5]decane] | 30.5 | 10.3
CCN(C)S(=O)(=O)Nc1ccc(F)c(Oc2ccc3ncc([C@@H]4COC5(CCN(C(=O)CN6CCC(c7ccc(NC8CCC(=O)NC8=O)cc7F)CC6)CC5)C4)nc3c2)c1C#N (stereo partly drawn) [Example 223, (3R)-3-[7-[2-cyano-3-[[ethyl(methyl)sulfamoyl]amino]-6-fluorophenoxy]quinoxalin-2-yl]-8-[2-[4-[4-[(2,6-dioxopiperidin-3-yl)amino]-2-fluorophenyl]piperidin-1-yl]acetyl]-1-oxa-8-azaspiro[4.5]decane] | 29.6 | 10.5
CCN(C)S(=O)(=O)Nc1ccc(F)c(Oc2ccc3ncc([C@H]4COC5(CCN(C(=O)CN6CCC(c7ccc(NC8CCC(=O)NC8=O)cc7F)CC6)CC5)C4)nc3c2)c1C#N (stereo partly drawn) [Example 224, (3S)-3-[7-[2-cyano-3-[[ethyl(methyl)sulfamoyl]amino]-6-fluorophenoxy]quinoxalin-2-yl]-8-[2-[4-[4-[(2,6-dioxopiperidin-3-yl)amino]-2-fluorophenyl]piperidin-1-yl]acetyl]-1-oxa-8-azaspiro[4.5]decane] | 22.9 | 9.09
CCN(C)S(=O)(=O)Nc1ccc(F)c(Oc2ccc3ncn([C@@H]4COC5(CCN(C(=O)CC6(O)CCN(c7cc8c(cc7F)c(N7CCC(=O)NC7=O)nn8C)CC6)CC5)C4)c(=O)c3c2)c1C#N [Example 228, (3S)-3-[6-[2-cyano-3-[[ethyl(methyl)sulfamoyl]amino]-6-fluoro-phenoxy]-4-oxo-quinazolin-3-yl]-8-[2-[1-[3-(2,4-dioxohexahydropyrimidin-1-yl)-5-fluoro-1-methyl-indazol-6-yl]-4-hydroxy-4-piperidyl]acetyl]-1-oxa-8-azaspiro[4.5]decane] | 18.6 | 7.82
CCN(C)S(=O)(=O)Nc1ccc(F)c(Oc2ccc3ncn(CCC4CCN(C(=O)CN5CCC(c6ccc(NC7CCC(=O)NC7=O)cc6)CC5)CC4)c(=O)c3c2)c1C#N (stereo not drawn) [Example A1, 6-[2-cyano-3-[[ethyl(methyl)sulfamoyl]amino]-6-fluoro-phenoxy]-3-[2-[1-[2-[4-[4-[(2,6-dioxo-3-piperidyl)amino]phenyl]-1-piperidyl]acetyl]-4-piperidyl]ethyl]-4-oxo-quinazoline] | 78 | 23
CCN(C)S(=O)(=O)Nc1ccc(F)c(Oc2ccc3ncn(CCC4CCN(CC(=O)N5CCC(c6ccc(NC7CCC(=O)NC7=O)cc6)CC5)CC4)c(=O)c3c2)c1C#N (stereo not drawn) [Example A2, 6-[2-cyano-3-[[ethyl(methyl)sulfamoyl]amino]-6-fluoro-phenoxy]-3-[2-[1-[2-[4-[4-[(2,6-dioxo-3-piperidyl)amino]phenyl]-1-piperidyl]-2-oxo-ethyl]-4-piperidyl]ethyl]-4-oxo-quinazoline, 2,2,2-trifluoroacetic acid salt] | 165 | 26
N#Cc1c(NS(=O)(=O)C2CCCC2)ccc(F)c1Oc1ccc2ncn(CCC3CCN(C(=O)CN4CCC(c5ccc(NC6CCC(=O)NC6=O)cc5)CC4)CC3)c(=O)c2c1 (stereo not drawn) [Example A3, N-[2-cyano-3-[3-[2-[1-[2-[4-[4-[(2,6-dioxo-3-piperidyl)amino]phenyl]-1-piperidyl]acetyl]-4-piperidyl]ethyl]-4-oxo-quinazolin-6-yl]oxy-4-fluoro-phenyl]cyclopentanesulfonamide 2,2,2-trifluoroacetic acid salt] | 242 | 24
